Columns and labels:
[1] = up to the replacement of 10-30% of water in the body; cited from earlier work
[2] = freely diffusing deuterated compound
Source text: In this case, the pharmacokinetics in a non-obvious way depends on a dose used (in particular, an excess of the renal reabsorption capacity for a particular compound can lead to its accelerated excretion). At that, the dose is limited by the toxicity and solubility of this compound.

[3] = Solubility in water for injection; assay type: physicochemical; settings: limits the dose to 10 mg in 1.0 ml
[4] = system: 4T1 breast carcinoma; test: Deuterium tomography (2H MRI) of mice with 4T1 breast carcinoma after injection of the deuterated compound; settings: 10 mg intraperitoneally in 1.0 ml water, 20 g mouse
Method: The deuterium tomogram was recorded using FLASH (Fast low angle shot) pulse sequence. The excitation frequency was determined from the ^2H NMR spectrum and was on the instrument used: sfo1≈46.17452 MHz, rectangular excitation pulse 2560 Hz wide and 11.2 dB power, deflection angle FA=30°, repetition time TR=11.8 ms, echo time TE=4.07 ms, scan region10 cm×10 cm, scan matrix 50×50, slice thickness 3 cm, bandwidth 12500 Hz, total scan time 9 minutes 34 seconds (1024 accumulations).
In this example, experiments were performed on Balb/c mice grafted with 4T1 breast carcinoma (injection of 5×10^5 cells/60 μI under the left forepaw 12 days before the experiment). […] In 10 minutes after the injection, the animal was immobilized with isoflurane and placed on a heated bed in a tomograph.
An animal weighing 20 g was injected intraperitoneally with a solution:

[5] = high doses, prior art; cited from earlier work
[6] = Source text: An important property of the deuterated component (sarcosine) of the diagnostic drug of the invention is sufficient resistance to metabolic exchange of deuterium for protium in vivo. This exchange lowers the concentration of the deuterium label, while simultaneously increasing the background signal of heavy water (DOH), which is evenly distributed throughout the body due to rapid diffusion. This process leads to a decrease in the contrast of the image, and also prevents quantitive evaluation of deuterated component concentration by comparison with the intensity of natural DOH signal.

Structure (SMILES): [2H]O [DOH]
- toxicity [1]: non-toxic in very high doses

Structure (SMILES): [2H]O[2H] [D2O]
- selective accumulation in various organs and tissues of a subject [2]: do not show selective accumulation

Structure (SMILES): [2H]c1c([2H])c([2H])c(C([2H])([2H])[C@H](N)C(=O)O)c([2H])c1[2H] [L-phenylalanine-β, β, 2,3,4,5,6-d7]
- solubility [3]: low solubility
- accumulation in tumor tissue [4]: do not accumulate in tumor tissue
- accumulation selectivity in various organs [4]: do not show accumulation selectivity

Structure (SMILES): CNCC(=O)O [sarcosine]
- LD50 [5]: > 5000 mg/kg

Structure (SMILES): [2H]C([2H])([2H])[C@H](N)C(=O)O [L-alanine-3,3,3-d3]
- loss of deuterium in vivo (exchange of deuterium for protium) [6]: lose deuterium in vivovery quickly

Structure (SMILES): [2H]C([2H])(N)C(=O)O [glycine-2,2-d2]
- loss of deuterium in vivo (exchange of deuterium for protium) [6]: lose deuterium in vivovery quickly

Reference: US12383523B2, “Magnetic resonance imaging drug containing deuterated sarcosine, and diagnostic method using said drug” (LIMITED LIABILITY COMPANY “SOLVEX” (“SOLVEX” LLC), priority 2018, dated 2025)
